Here are results for 54 molecules from patent US10570117B2, “Phenylimidazole compound” (Otsuka Pharmaceutical Factory, Inc., priority 2015, dated 2020).

Converted amounts (≈) assume the structure as drawn. Where two headings read alike, the source gives them in different places. Where only a bound is given, the exact number is not on record here.

A short description of series [1]: Solubility in gastric juice or intestinal juice model fluid (precipitation method using DMSO). Format: physicochemical. The settings on record: room temperature. How it is done: Solubility in Gastric Juice or Intestinal Juice Model Fluid
Measurement was performed by a precipitation method using DMSO. Specifically, each of the dimethyl sulfoxide (DMSO) solutions of the compounds was individually added to 1st fluid for Disintegration Test of Japanese Pharmacopoeia (pH: 1.2) or 2nd fluid for Disintegration Test of Japanese Pharmacopoeia (pH: 6.8), and the mixtures were stirred by shaking at room temperature for 24 hours. Subsequently, insoluble substances in each mixture were removed by filtration, and the UV absorption of each filtrate was measured. The obtained values were individually applied to the calibration curves of the compounds prepared in advance to calculate the concentrations of the compounds dissolved (μg/mL).

[2] abbreviates: pH 1.2, simulated gastric fluid, kinetic from dmso stock, 1st fluid for Disintegration Test of Japanese Pharmacopoeia (pH: 1.2), read-out: Solubility (μg/mL) 1st fluid.
The mark [3] stands for this setting: pH 6.8, kinetic from dmso stock, 2nd fluid for Disintegration Test of Japanese Pharmacopoeia (pH: 6.8), read-out: Solubility (μg/mL) 2nd fluid.
[4] abbreviates: 2nd fluid for Disintegration Test of Japanese Pharmacopoeia (pH: 6.8), 24 hours.

On to `COc1cc(-c2cnc(C3CC(F)(F)C3)[nH]2)ccc1OCc1ccc(C(F)(F)F)nc1` [Example 2], for which the solubility at 24 h in series [1] (setting [2]) was greater than 88 µg/mL; in series [1] (setting [3]), 25.1 µg/mL (≈ 57.1 µM).

As for `COc1cc(-c2cnc(C3CCCC(F)(F)C3)[nH]2)ccc1OCc1ccc(C(F)(F)F)cn1` (centres unmarked) [Example 5], the solubility at 24 h in series [1] (setting [2]) was 90.1 µg/mL (≈ 193 µM); in series [1] (setting [3]) it was 1.1 µg/mL (≈ 2.35 µM).

With `COc1cc(OCc2ccc(C(F)(F)F)cn2)ccc1-c1cnc(C2CC(F)(F)C2)[nH]1` [Example 9], the solubility at 24 h was 87.7 µg/mL (≈ 200 µM) in series [1] (setting [2]) and 1.8 µg/mL (≈ 4.1 µM) in series [1] (setting [3]).

For the molecule `COc1cc(-c2cnc(C3CCC(F)(F)C3)[nH]2)ccc1OCc1ccc(C(F)(F)F)cn1` (centres unmarked) [Example 10], the solubility at 24 h is 89.5 µg/mL (≈ 197 µM) in series [1] (setting [2]) and 17.3 µg/mL (≈ 38.2 µM) in series [1] (setting [3]).

On to `COc1cc(-c2cnc(C3CC(F)(F)C3)[nH]2)ccc1OCc1ccc(C(F)(F)F)cn1` [Example 11], for which the solubility at 24 h is 80.1 µg/mL (≈ 182 µM) in series [1] (setting [2]) and 5.4 µg/mL (≈ 12.3 µM) in series [1] (setting [3]).

In the case of `COc1cc(-c2nc(-c3ccc(Cl)nc3)[nH]c2C)ccc1OCc1ccc(C(F)(F)F)nc1` [Example 28], the melting point lay within 209 to 211 °C.

In the case of `COc1cc(OCc2ccc(C#N)cn2)ccc1-c1c[nH]c(-c2ccc(Cl)nc2)n1` [Example 35], the melting point was 233 to 237 °C (dec.).

As to `COc1cc(OCc2cnccn2)ccc1-c1c[nH]c(-c2ccc(Cl)nc2)n1` [Example 50], the melting point was 210 to 213 °C (dec.).

Take `COc1cc(-c2c[nH]c(C3CCCCC3)n2)ccc1OCc1ccc(C(F)(F)F)nc1` [Example 51]: the solubility at 24 h in series [1] (setting [2]) was 90.2 µg/mL (≈ 209 µM); in series [1] (setting [3]), 9 µg/mL (≈ 20.9 µM).

Take `COc1cc(-c2c[nH]c(-c3ccc(Cl)nc3)n2)ccc1OCc1ccc(C(F)(F)F)nc1` [Example 52]: the melting point fell in the range of 179 to 181 °C.

As for `COc1cc(OCc2ccc(C(F)(F)F)nc2)ccc1-c1c[nH]c(-c2ccc(Cl)nc2)n1` [Example 54], the melting point was in the range of 218 to 220 °C.

Turning to `COc1cc(OCc2ccc(C(F)(F)F)cn2)ccc1-c1c[nH]c(-c2ccc(SC(C)(C)C)cn2)n1` [Example 59], the melting point lay within 159 to 160 °C.

Turning to `COc1ccc(-c2nc(-c3ccc(OCc4ccc(C(F)(F)F)cn4)c(OC)c3)c[nH]2)cn1` [Example 70], the melting point was 217 to 218 °C (dec.).

As to `CCOc1ccc(-c2nc(-c3ccc(OCc4ccc(Br)cc4F)cc3OC)c[nH]2)cn1` [Example 84], the melting point fell in the range of 181 to 184 °C.

As for `COc1cc(OCc2ccc(Br)cc2F)ccc1-c1c[nH]c(-c2ccccn2)n1` [Example 90], the melting point fell in the range of 219 to 222 °C.

`COc1cc(OCc2ccc(Br)cc2F)ccc1-c1c[nH]c(-c2ccc(Cl)nc2)n1` [Example 92] registered a melting point of 220 to 222 °C.

In turn, `COc1cc(-c2c[nH]c(-c3ccc(C(F)(F)F)nc3)n2)ccc1OCc1ccc(Br)cc1F` [Example 95] showed a melting point of 175 to 177 °C.

Turning to `COc1cc(OCc2ccc(C(F)(F)F)cn2)ccc1-c1c[nH]c(-c2ccc(C(F)(F)F)nc2)n1` [Example 96], the melting point was in the range of 209 to 211 °C.

`COc1cc(OCc2ccc(Br)cc2F)ccc1-c1c[nH]c(-c2ccc(C(F)(F)F)nc2)n1` [Example 99] registered a melting point of 183 to 185 °C.

The molecule `COc1cc(OCc2ccc(F)cc2F)ccc1-c1cnc(-c2ccc(Cl)nc2)[nH]1` [Example 101] had a melting point of 213 to 218 °C.

For `COc1cc(-c2cnc(-c3ccc(F)nc3)[nH]2)ccc1O` [Example 110, 4-[2-(6-fluoropyridin-3-yl)-1H-imidazol-5-yl]-2-methoxyphenol], the solubility at 24 h in series [1] (setting [2]) and in series [1] (setting [3]) was greater than 57 µg/mL in each case.

Take `COc1cc(OCc2cccc(C(F)(F)F)n2)ccc1-c1cnc(-c2ccc(F)nc2)[nH]1` [Example 113]: the values for the solubility at 24 h in series [1] (setting [2]) and in series [1] (setting [3]) were 21.1 µg/mL (≈ 47.5 µM) and 0.5 µg/mL (≈ 1.13 µM), respectively.

Consider `COc1cc(-c2c[nH]c(-c3ccc(F)nc3)n2)ccc1OCc1ccc(C(F)(F)F)cn1` [Example 125], for which the results for the solubility at 24 h in series [1] (setting [2]) and in series [1] (setting [3]) were 23.1 µg/mL (≈ 52 µM) and 0.5 µg/mL (≈ 1.13 µM), respectively.

As to `COc1cc(OC(C)c2cccc(C(F)(F)F)n2)ccc1-c1cnc(-c2ccc(F)nc2)[nH]1` (centres unmarked) [Example 127], the solubility at 24 h in series [1] (setting [2]) was 17.1 µg/mL (≈ 37.3 µM); in series [1] (setting [3]), less than 0.3 µg/mL.

With `COc1cc(OC(C)c2ncc(C(F)(F)F)cc2F)ccc1-c1cnc(-c2ccc(F)nc2)[nH]1` (centres unmarked) [Example 129], the results for the solubility at 24 h in series [1] (setting [2]) and in series [1] (setting [3]) were 13.6 µg/mL (≈ 28.5 µM) and less than 0.3 µg/mL, respectively.

For the molecule `COc1cc(OC(C)c2ccc(C(F)(F)F)nc2)ccc1-c1cnc(-c2ccc(F)nc2)[nH]1` (centres unmarked) [Example 130], the melting point fell in the range of 72 to 105 °C.

Turning to `COc1cc(OCc2ccc(Cl)cc2F)ccc1-c1cnc(-c2ccc(F)nc2)[nH]1` [Example 143], the melting point was in the range of 178 to 180 °C.

The molecule `COc1cc(OCc2ccc(Br)cc2F)ccc1-c1cnc(-c2ccc(F)nc2)[nH]1` [Example 144] yielded a melting point of 177 to 180 °C.

In the case of `COc1cc(O[C@@H](C)c2ccc(C(F)(F)F)cc2)ccc1-c1cnc(-c2ccc(F)nc2)[nH]1` [Example 145], the solubility at 24 h is less than 0.3 µg/mL in series [1] (setting [2]) and 4 µg/mL (≈ 8.74 µM) in series [1] (setting [3]).

For the molecule `COc1cc(O[C@H](C)c2ccc(C(F)(F)F)nc2)ccc1-c1cnc(-c2ccc(F)nc2)[nH]1` [Example 146], the “Solubility (μg/mL) 2nd fluid” value in series [1] (setting [4]) amounted to 1.2 µg/mL (≈ 2.62 µM). For the same molecule, the solubility at 24 h in series [1] (setting [2]) is 9.9 µg/mL (≈ 21.6 µM).

For the molecule `COc1cc(O[C@@H](C)c2ccc(C(F)(F)F)nc2)ccc1-c1cnc(-c2ccc(F)nc2)[nH]1` [Example 147], the solubility at 24 h is 12.4 µg/mL (≈ 27 µM) in series [1] (setting [2]) and 3.6 µg/mL (≈ 7.85 µM) in series [1] (setting [3]).

Regarding `COc1cc(O[C@H](C)c2ccc(C(F)(F)F)cc2)ccc1-c1cnc(-c2ccc(F)nc2)[nH]1` [Example 148], the solubility at 24 h in series [1] (setting [2]) is less than 0.3 µg/mL; in series [1] (setting [3]), 5.3 µg/mL (≈ 11.6 µM).

Take `COc1cc(O[C@H](C)c2ccc(C(F)(F)F)nc2)ccc1-c1cnc(-c2ccc(F)nc2)[nH]1` [Example 149]: the “Solubility (μg/mL) 1st fluid” value in series [1] (1st fluid for Disintegration Test of Japanese Pharmacopoeia (pH: 1.2), 24 hours) was 19.6 µg/mL (≈ 42.8 µM). The “Solubility (μg/mL) 2nd fluid” value in series [1] (setting [4]) was 3.9 µg/mL (≈ 8.51 µM).

`COc1cc(OCc2cc(C(F)(F)F)ccn2)ccc1-c1[nH]c(-c2ccc(F)nc2)nc1Cl` [Example 173] registered a melting point of 185 to 187 °C.

`COc1cc(OCc2cc(C(F)(F)F)ccn2)ccc1-c1[nH]c(-c2ccc(Cl)nc2)nc1Cl` [Example 174] registered a melting point of 176 to 178 °C.

In turn, `COc1cc(-c2[nH]c(-c3ccc(F)nc3)nc2Cl)ccc1OCc1ccc(C(F)(F)F)nc1` [Example 177] displayed a melting point of 202 to 204 °C.

For `COc1cc(OCc2cccc(C#N)n2)ccc1-c1[nH]c(C2CCC(F)(F)CC2)nc1Cl` [Example 186], the solubility at 24 h was 23.2 µg/mL (≈ 50.6 µM) in series [1] (setting [2]) and less than 0.3 µg/mL in series [1] (setting [3]).

`COc1cc(OCc2cnc(Cl)cn2)ccc1-c1nc(-c2ccc(Cl)nc2)[nH]c1Cl` [Example 215] showed a melting point of 232 to 234 °C.

Take `COc1cc(OCc2cnc(Cl)cn2)ccc1-c1nc(-c2ccc(F)nc2)[nH]c1Cl` [Example 217]: the melting point is 231 to 233 °C (dec.).

Take `COc1cc(OCc2ccc(C(F)(F)F)cn2)ccc1-c1nc(-c2ccc(F)cn2)[nH]c1Cl` [Example 231]: the melting point is 222 to 224 °C (dec.).

As to `COc1cc(OCc2ccc(C(F)(F)F)cn2)ccc1-c1nc(-c2ccc(Cl)cn2)[nH]c1Cl` [Example 232], the melting point was 197 to 199 °C (dec.).

In turn, `COc1cc(OCc2cccnc2C(F)(F)F)ccc1-c1[nH]c(-c2ccc(Cl)nc2)nc1Cl` [Example 243] yielded a melting point of 195 to 199 °C.

As to `COc1cc(OCc2ccc(F)cc2F)ccc1-c1[nH]c(-c2ccc(Cl)nc2)nc1Cl` [Example 244], the melting point was in the range of 173 to 177 °C.

The molecule `COc1cc(OCc2ncc(Br)cc2F)ccc1-c1[nH]c(-c2ccc(Cl)nc2)nc1Br` [Example 250] came in with a melting point of 174 to 179 °C.

Molecule `COc1cc(OCc2ncc(Br)cc2F)ccc1-c1[nH]c(-c2ccc(Cl)nc2)nc1Cl` [Example 251] returned a melting point of 189 to 191 °C.

In the case of `COc1cc(OCc2cnccc2C(F)(F)F)ccc1-c1[nH]c(-c2ccc(F)nc2)nc1Cl` [Example 257], the melting point was 133 to 153 °C.

For the molecule `COc1cc(OCc2cc(C(F)(F)F)ccn2)ccc1-c1[nH]c(-c2ccc(F)nc2)nc1Br` [Example 269], the melting point is 179 to 181 °C.

Take `COc1cc(OCc2ccnc(C(F)(F)F)c2)ccc1-c1[nH]c(-c2ccc(F)nc2)nc1Cl` [Example 272]: the melting point lay within 236 to 238 °C.

In the case of `COc1cc(OCc2cccc(C(F)(F)F)n2)ccc1-c1[nH]c(-c2ccc(Cl)nc2)nc1Cl` [Example 282], the melting point lay within 190 to 193 °C.

The molecule `COc1cc(OCc2ncc(Cl)cc2F)ccc1-c1[nH]c(-c2ccc(F)nc2)nc1Cl` [Example 283] showed a melting point of 172 to 175 °C.

As to `COc1cc(OCc2ccc(Br)cc2F)ccc1-c1[nH]c(-c2ccc(F)nc2)nc1Cl` [Example 284], the melting point fell in the range of 183 to 185 °C.

As for `COc1cc(OCc2ccc(Cl)cc2F)ccc1-c1[nH]c(-c2ccc(F)nc2)nc1Cl` [Example 286], the melting point lay in the range of 163 to 166 °C.

Regarding `COc1cc(OCc2ccc(C(F)(F)F)nc2)ccc1-c1c(Cl)nc(-c2ccc(Cl)nc2)n1C` [Example 307], the melting point is 149 to 151 °C.

`COc1cc(OCc2ccc(C(F)(F)F)nc2)ccc1-c1[nH]c(-c2ccc(F)nc2)nc1F` [Example 320] came in with a melting point of 194 to 196 °C.
